Results as given in patent US10280465B2, “Biomarkers for predicting relapse in multiple sclerosis” (The United States of America as represented by the …, priority 2014, dated 2019).
Entries after “also recorded” stand apart in the source; their conditions may differ.

Assays:
EAE = conditions: cited from earlier work
activated T cells = conditions: Singh et al., 2007; cited from earlier work
[1] = system: CD4+ T cells from an MS patient; test: Annexin V-FITC binding (early apoptosis) by FACS, CD4+ T cells from an MS patient; type: cell-based, human; conditions: sirtinol 200 μM, 24 h
Method: (§1) PBMCs and Jurkat cells were plated in RPMI-10% FBS in 12-well plates 24 h prior to Annexin V FITC FACS analysis. Some of the cells were treated with sirtinol (200 μM) and the binding of Annexin V-FITC to cells was compared with that of cells exposed to vehicle (DMSO) only. Annexin V assay was performed according to manufacturer instructions (BD Biosciences) and only Annexin V FITC positive, propidium iodide negative cells were used in the evaluations since they are reflecting early apoptosis.

[2] = system: CD8+ T cells from an MS patient; test: Annexin V-FITC binding (early apoptosis) by FACS, CD8+ T cells from an MS patient; type: cell-based, human; conditions: sirtinol 200 μM, 24 h
Method: as §1

Jurkat cells = test: Annexin V-FITC binding (early apoptosis) by FACS, Jurkat cells; type: cell-based; conditions: sirtinol 200 μM, 24 h
Method: as §1

SIRT1 mRNA = SIRT1 mRNA expression in PBMCs from stable MS patients after sirtinol; type: cell-based, human; conditions: sirtinol 200 μM, data not shown
FasL = FasL expression by FACS analysis in PBMCs from a stable MS patient after sirtinol; type: cell-based, human; conditions: sirtinol 200 μM
Method: FIGS. 8A-8D. Effect of SIRT 1 inhibition on FasL expression. PBMCs from a stable MS patient (FIG. 8A, FIG. 8C) were pretreated with the SIRT1 inhibitor sirtinol (200 μM) for 24 h (FIG. 8B, FIG. 8D), cultured with CD4^+ (FIG. 8B) or CD8^+ (FIG. 8D) T cells, and expression of FasL was then determined by FACS analysis.

RRMS = test: Clinical response to glatiramer acetate in RRMS patients over 2 years; type: in vivo, human; conditions: 15 RRMS patients, 20 mg subcutaneously every day for 2 years
Description: A total of 15 patients with RRMS were enrolled in the study. The patients were recruited from the University of Maryland Multiple Sclerosis Center. The mean age was 40 (range, 22-60), and consisted of 60% females (n=9) and 40% males (n=6). The criteria for inclusion of MS patients in the study were: (i) age 18 to 65 years; (ii) fulfillment of the McDonald criteria for definite MS (McDonald et al., 2001; Polman et al., 2005); (iii) relapsing-remitting course; (iv) having newly diagnosed MS, or MS not treated with currently used immunomodulatory drugs (interferon-β or glatiramer acetate) for 3 months prior to study entry; (v) no exacerbations in the 4 weeks before the study; (vi) no i.v. or p.o. steroids for 4 weeks prior to study enrollment; (vii) no treatment with Tysabri, Gilenya, mitoxantrone, cyclophosphamide, or any investigational drug during the past year; and (viii) a disability score of 0-5.5, as defined by the expanded disability status scale (EDSS) (Kurtzke, 1983). […]
All MS patients received 20 mg of glatiramer acetate (GA) injected subcutaneously every day for 2 years. During this period of 2 years, patients were clinically evaluated and peripheral blood samples were collected at 0, 3, 6, and 12 months at the time of their outpatient visits. […]

Molecule: Oc1ccc(C=Cc2cc(O)cc(O)c2)cc1 [resveratrol]
- disease course in EAE (EAE; Nimmagadda et al., 2013): ameliorates the disease course
- spinal cord inflammation during EAE (EAE; Singh et al., 2007): decrease in spinal cord inflammation
- apoptosis in activated T cells (activated T cells): trigger apoptosis

Molecule: CC(NC(=O)c1ccccc1/N=C/c1c(O)ccc2ccccc12)c1ccccc1 (stereo not drawn) [sirtinol]
- Annexin V binding / apoptosis, in words ([1]; CD4+ T cells from an MS patient): significant apoptosis; also recorded: significant increase in Annexin V binding
- apoptosis (Annexin V binding) ([1]; CD4 cells, control cells 6%): 55%
- Annexin V binding / apoptosis, in words ([2]; CD8+ T cells from an MS patient): significant apoptosis; also recorded: significant increase in Annexin V binding
- apoptosis (Annexin V binding) ([2]; CD8 cells, control cells 22%): 81%
- Annexin V binding / apoptosis, in words (Jurkat cells): significant apoptosis; also recorded: significant increase in Annexin V binding
- cells binding Annexin V (Jurkat cells; vehicle DMSO control 6%): 65%
- inhibition of the expression of SIRT1 mRNA (SIRT1 mRNA): 50%
- FasL expression (FasL; CD4+ T cells, 24 h): significant increase
- FasL expression (FasL; CD8+ T cells, 24 h): significant increase
- FasL expression (FasL; PBMCs from stable MS patients): significantly increased

Molecule: glatiramer acetate [GA]
- non-responders (2 or more relapse events during the 2 year span) (RRMS): 4
- responders (0 or no more than 1 relapse event during the 2 year span) (RRMS): 11
